According to ChEMBL document CHEMBL1145498, “A systematic interaction map of validated kinase inhibitors with Ser/Thr kinases” (Proc Natl Acad Sci U S A, 2007):

Key:
[1] = target: Calcium/calmodulin-dependent protein kinase type 1G (Homo sapiens) (UniProt Q96NX5)
[2] = target: Calcium/calmodulin-dependent protein kinase kinase 2 (Homo sapiens, UniProt Q96RR4)
[3] = target: Cyclin-dependent kinase 6 (Homo sapiens) (UniProt Q00534)
[4] = target: Serine/threonine-protein kinase Chk2 (Homo sapiens, UniProt O96017)
[5] = target: Dual specificity protein kinase CLK2 (Homo sapiens) (UniProt P49760)
[6] = target: Dual specificity protein kinase CLK3 (Homo sapiens) (UniProt P49761)
[7] = target: Casein kinase I isoform gamma-1 (Homo sapiens) (UniProt Q9HCP0)
[8] = target: Death-associated protein kinase 3 (Homo sapiens) (UniProt O43293)
[9] = target: Tyrosine-protein kinase JAK1 (Homo sapiens) (UniProt P23458)
[10] = target: Mitogen-activated protein kinase 11 (Homo sapiens, UniProt Q15759)
[11] = target: Mitogen-activated protein kinase 3 (Homo sapiens, UniProt P27361)
[12] = target: Serine/threonine-protein kinase Nek6 (Homo sapiens) (UniProt Q9HC98)
[13] = target: Serine/threonine-protein kinase OSR1 (Homo sapiens) (UniProt O95747)
[14] = target: Serine/threonine-protein kinase pim-2 (Homo sapiens, UniProt Q9P1W9)
[15] = target: Serine/threonine-protein kinase pim-3 (Homo sapiens) (UniProt Q86V86)
[16] = target: T1, Serine/threonine-protein kinase PLK4 (Homo sapiens) (UniProt O00444)
T1 sequence (whole entry): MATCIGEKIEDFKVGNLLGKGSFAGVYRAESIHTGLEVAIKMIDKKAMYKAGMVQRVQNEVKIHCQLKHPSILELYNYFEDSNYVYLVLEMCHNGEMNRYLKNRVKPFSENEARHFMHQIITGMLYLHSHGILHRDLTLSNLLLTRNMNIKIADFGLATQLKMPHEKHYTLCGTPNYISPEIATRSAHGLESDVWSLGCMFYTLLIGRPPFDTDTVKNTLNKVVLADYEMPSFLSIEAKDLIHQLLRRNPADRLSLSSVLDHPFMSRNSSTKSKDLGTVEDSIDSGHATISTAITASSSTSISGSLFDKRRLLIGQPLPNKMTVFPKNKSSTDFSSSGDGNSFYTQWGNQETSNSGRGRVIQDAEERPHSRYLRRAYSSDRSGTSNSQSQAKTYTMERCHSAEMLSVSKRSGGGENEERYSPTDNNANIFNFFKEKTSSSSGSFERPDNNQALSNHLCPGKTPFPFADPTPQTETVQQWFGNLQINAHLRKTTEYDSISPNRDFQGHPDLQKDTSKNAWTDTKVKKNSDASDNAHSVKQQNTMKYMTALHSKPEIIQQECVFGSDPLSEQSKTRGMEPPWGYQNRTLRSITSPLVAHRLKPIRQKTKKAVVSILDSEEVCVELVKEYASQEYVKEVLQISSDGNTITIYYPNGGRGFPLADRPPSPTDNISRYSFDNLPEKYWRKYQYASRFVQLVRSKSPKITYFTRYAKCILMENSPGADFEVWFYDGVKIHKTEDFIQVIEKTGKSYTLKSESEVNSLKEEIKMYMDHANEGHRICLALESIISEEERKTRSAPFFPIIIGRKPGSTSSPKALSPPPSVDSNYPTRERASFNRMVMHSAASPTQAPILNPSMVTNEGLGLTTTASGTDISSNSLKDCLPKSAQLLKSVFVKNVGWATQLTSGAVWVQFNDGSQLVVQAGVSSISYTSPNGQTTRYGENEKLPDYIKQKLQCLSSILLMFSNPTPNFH

[17] = target: cAMP-dependent protein kinase catalytic subunit alpha (Homo sapiens) (UniProt P17612)
[18] = target: Ribosomal protein S6 kinase alpha-3 (Homo sapiens) (UniProt P51812)
[19] = target: STE20-like serine/threonine-protein kinase (Homo sapiens) (UniProt Q9H2G2)
[20] = target: T2, Lymphokine-activated killer T-cell-originated protein kinase (Homo sapiens) (UniProt Q96KB5)
T2 sequence (whole entry): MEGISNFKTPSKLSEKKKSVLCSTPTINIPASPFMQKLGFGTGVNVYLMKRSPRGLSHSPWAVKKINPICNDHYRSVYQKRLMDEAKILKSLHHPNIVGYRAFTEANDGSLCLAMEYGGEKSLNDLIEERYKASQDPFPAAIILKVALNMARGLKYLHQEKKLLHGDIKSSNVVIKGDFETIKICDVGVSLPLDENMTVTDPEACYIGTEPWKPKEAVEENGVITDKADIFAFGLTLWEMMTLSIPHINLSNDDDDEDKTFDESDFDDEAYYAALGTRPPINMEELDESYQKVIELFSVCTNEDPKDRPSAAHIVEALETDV

[21] = target: T3, Serine/threonine-protein kinase VRK3 (Homo sapiens) (UniProt Q8IV63)
T3 sequence (whole entry): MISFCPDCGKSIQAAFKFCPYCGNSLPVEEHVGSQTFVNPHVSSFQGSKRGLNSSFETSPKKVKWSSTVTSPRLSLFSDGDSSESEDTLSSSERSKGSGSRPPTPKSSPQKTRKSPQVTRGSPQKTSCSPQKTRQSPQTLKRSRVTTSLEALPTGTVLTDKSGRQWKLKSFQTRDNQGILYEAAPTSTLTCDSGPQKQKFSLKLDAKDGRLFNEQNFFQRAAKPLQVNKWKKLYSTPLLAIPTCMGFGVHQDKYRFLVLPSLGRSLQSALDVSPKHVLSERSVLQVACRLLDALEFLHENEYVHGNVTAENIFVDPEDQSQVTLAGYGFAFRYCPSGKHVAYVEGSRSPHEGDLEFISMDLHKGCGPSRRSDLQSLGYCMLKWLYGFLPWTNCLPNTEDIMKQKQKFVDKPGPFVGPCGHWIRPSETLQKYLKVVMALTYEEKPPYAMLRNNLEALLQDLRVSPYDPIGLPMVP

Chain of Serine/threonine-protein kinase Chk2 (O96017 whole entry): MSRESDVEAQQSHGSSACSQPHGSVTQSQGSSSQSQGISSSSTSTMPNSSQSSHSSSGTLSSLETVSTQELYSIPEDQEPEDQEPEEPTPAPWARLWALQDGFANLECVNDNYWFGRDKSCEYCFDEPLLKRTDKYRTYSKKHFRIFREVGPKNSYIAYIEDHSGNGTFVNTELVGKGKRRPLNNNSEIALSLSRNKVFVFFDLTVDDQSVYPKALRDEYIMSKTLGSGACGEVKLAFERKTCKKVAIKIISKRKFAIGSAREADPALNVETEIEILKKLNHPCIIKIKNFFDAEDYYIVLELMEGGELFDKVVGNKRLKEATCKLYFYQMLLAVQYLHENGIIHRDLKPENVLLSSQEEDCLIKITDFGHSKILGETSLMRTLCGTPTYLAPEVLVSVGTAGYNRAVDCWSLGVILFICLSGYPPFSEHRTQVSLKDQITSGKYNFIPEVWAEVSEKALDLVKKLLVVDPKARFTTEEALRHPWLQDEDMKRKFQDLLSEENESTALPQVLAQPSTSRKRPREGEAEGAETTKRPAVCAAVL
Chain of Mitogen-activated protein kinase 11 (Q15759 whole entry): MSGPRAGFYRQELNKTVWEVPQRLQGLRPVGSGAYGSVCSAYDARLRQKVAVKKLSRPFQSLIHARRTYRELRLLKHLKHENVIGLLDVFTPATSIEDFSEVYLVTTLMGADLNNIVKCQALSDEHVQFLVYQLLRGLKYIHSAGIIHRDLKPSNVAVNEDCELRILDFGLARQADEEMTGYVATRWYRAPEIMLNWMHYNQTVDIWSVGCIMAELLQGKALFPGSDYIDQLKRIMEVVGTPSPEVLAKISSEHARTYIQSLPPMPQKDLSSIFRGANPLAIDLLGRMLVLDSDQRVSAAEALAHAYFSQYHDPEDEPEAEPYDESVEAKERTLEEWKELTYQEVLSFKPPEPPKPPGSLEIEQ
Chain of Calcium/calmodulin-dependent protein kinase type 1G (Homo sapiens) (Q96NX5 whole entry): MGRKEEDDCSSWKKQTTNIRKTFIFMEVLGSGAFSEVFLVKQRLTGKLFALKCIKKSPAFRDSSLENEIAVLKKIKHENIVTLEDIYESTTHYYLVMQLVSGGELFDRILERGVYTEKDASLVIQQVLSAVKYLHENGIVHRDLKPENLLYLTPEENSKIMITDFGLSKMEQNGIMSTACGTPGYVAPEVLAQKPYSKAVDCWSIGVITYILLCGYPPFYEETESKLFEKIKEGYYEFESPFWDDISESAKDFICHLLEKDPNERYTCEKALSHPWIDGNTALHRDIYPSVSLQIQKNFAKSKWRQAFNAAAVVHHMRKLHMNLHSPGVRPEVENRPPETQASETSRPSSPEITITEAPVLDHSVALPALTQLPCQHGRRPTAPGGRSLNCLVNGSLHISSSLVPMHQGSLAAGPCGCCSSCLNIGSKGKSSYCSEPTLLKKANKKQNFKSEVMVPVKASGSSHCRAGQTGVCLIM
Chain of Mitogen-activated protein kinase 3 (P27361 whole entry): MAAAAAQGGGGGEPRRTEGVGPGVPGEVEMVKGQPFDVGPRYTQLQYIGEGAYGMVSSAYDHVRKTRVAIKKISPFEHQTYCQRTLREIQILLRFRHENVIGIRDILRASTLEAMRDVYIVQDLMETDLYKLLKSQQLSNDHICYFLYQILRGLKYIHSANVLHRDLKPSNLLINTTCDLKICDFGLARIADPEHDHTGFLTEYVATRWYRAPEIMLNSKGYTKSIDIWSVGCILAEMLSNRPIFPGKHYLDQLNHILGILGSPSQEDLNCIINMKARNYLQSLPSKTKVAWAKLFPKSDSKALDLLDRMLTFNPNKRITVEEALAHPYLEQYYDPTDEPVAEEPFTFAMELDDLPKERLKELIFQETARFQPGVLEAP
Chain of Calcium/calmodulin-dependent protein kinase kinase 2 (Q96RR4 2-588 limits assumed): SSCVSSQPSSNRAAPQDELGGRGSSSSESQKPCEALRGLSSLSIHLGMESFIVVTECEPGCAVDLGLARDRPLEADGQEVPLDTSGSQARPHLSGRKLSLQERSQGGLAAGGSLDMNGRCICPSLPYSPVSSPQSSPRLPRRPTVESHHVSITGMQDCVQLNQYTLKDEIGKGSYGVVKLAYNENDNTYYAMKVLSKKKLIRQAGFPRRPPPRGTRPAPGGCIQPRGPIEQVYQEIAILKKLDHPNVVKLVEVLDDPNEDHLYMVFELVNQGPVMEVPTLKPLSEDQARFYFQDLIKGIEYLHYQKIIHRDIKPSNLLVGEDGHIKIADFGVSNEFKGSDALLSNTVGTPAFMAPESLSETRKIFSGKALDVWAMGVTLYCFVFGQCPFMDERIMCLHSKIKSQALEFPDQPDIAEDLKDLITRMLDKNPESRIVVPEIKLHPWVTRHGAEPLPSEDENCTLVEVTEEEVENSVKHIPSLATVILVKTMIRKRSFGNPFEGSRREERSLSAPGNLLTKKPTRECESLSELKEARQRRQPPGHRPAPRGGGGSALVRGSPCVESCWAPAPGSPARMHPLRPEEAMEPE
Chain of Cyclin-dependent kinase 6 (Homo sapiens) (Q00534 whole entry): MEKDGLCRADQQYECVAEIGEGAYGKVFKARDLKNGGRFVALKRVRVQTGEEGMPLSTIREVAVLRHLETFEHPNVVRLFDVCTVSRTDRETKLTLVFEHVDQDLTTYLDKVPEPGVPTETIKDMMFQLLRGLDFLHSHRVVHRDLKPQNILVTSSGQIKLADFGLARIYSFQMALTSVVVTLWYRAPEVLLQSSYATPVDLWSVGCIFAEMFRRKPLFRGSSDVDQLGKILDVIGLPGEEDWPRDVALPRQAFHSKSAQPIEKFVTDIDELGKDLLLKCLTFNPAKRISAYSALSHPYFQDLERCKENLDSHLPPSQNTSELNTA
Chain of Tyrosine-protein kinase JAK1 (Homo sapiens) (P23458 whole entry): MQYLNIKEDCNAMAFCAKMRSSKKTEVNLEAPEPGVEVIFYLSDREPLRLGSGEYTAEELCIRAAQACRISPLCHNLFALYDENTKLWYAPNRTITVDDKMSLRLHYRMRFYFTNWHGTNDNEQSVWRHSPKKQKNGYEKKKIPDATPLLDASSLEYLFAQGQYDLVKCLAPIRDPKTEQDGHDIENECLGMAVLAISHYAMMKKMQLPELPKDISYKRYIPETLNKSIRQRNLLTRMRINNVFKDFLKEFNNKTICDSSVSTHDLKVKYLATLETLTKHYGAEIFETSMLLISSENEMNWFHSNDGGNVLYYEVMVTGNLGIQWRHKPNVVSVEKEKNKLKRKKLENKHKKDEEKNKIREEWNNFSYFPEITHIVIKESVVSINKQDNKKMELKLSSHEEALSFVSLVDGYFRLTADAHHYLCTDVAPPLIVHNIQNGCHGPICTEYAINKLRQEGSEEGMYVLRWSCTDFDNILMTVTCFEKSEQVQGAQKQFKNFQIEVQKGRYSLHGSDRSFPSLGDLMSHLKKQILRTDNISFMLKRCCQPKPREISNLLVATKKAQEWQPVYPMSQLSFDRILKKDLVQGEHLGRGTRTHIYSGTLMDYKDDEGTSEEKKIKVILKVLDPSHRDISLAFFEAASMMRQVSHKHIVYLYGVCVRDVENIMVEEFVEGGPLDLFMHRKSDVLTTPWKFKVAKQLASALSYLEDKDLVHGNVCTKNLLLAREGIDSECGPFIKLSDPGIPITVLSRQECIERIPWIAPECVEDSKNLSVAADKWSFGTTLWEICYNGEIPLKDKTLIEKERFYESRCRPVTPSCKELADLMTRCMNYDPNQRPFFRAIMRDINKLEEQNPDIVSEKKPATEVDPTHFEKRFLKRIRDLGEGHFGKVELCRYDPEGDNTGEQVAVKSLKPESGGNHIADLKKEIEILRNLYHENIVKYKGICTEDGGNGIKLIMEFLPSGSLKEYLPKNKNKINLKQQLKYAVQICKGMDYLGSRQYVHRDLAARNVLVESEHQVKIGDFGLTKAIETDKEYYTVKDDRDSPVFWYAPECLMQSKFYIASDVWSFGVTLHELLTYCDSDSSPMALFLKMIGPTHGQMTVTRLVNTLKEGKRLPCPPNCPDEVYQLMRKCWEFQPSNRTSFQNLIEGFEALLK
Chain of Ribosomal protein S6 kinase alpha-3 (Homo sapiens) (P51812 whole entry): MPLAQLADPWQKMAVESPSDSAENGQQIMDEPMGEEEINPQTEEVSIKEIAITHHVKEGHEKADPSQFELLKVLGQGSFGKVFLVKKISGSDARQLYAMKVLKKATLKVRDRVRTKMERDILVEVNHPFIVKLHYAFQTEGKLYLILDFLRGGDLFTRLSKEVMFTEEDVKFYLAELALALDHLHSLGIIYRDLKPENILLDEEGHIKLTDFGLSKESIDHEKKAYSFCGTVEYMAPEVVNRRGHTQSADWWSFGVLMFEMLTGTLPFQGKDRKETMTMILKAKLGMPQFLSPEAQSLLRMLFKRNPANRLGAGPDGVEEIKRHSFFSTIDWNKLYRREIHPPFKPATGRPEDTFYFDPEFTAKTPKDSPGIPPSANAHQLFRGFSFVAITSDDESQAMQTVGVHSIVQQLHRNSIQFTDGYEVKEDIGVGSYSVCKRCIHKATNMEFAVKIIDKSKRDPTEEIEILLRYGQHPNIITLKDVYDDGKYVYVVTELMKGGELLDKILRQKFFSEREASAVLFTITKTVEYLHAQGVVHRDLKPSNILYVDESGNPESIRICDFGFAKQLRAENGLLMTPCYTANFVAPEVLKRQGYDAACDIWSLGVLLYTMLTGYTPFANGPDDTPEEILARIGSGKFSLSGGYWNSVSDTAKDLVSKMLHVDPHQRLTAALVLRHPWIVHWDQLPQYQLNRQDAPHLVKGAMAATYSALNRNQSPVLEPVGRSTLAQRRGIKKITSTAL

Structure (SMILES)	ΔTm [1] [°C]	ΔTm [2] [°C]	ΔTm [3] [°C]	ΔTm [4] [°C]	ΔTm [5] [°C]	ΔTm [6] [°C]	ΔTm [7] [°C]	ΔTm [8] [°C]	ΔTm [9] [°C]	ΔTm [10] [°C]	ΔTm [11] [°C]	ΔTm [12] [°C]	ΔTm [13] [°C]	ΔTm [14] [°C]	ΔTm [15] [°C]	ΔTm [16] [°C]	ΔTm [17] [°C]	ΔTm [18] [°C]	ΔTm [19] [°C]	ΔTm [20] [°C]	other results
Cc1ccc(NC(=O)c2cccc(N(C)C)c2)cc1NC(=O)c1ccc(O)cc1	0.4	0.4	-0.4	0.9	0.2	0	-0.1	-0.4	0.1	4.1	0.2	0.3	2	0	0.6	0.8	0.9	-0.1	0.9	0.4	ΔTm [21]: -0.1 °C
Brc1c(Br)c(Br)c2[nH]nnc2c1Br [TETRABROMOBENZOTRIAZOLE]	-0.7	-0.5	0.3	0.5	2.4	2	-0.4	3.6	0.7	0.8	0	0.6	2.1	4.2	4.9	4.4	0.6	1.7	1.2	-0.3	ΔTm [21]: -1.2 °C
N#CCCc1ccc2c(c1)-c1[nH]c3ccc([N+](=O)[O-])cc3c1CC(=O)N2 [ALSTERPAULLONE 2]	1.6	2.3	3.2	8.2	1.4	2.3	2.4	1.7	1.4	0.5	2.2	0.8	0.8	1.4	1.9	10.3	1.1	1.4	1.8	0	ΔTm [21]: 0.6 °C
CCOC(=O)c1cnc2oc3ccc(O)cc3c2c1-c1ccccc1	0.1	2.3	0.1	0.8	3.5	1	1.2	0.8	8.6	-0.6	-0.1	-0.5	1.3	6.3	5.2	2.8	1.3	1	2.3	-0.2	ΔTm [21]: -0.6 °C
NCCNS(=O)(=O)c1cccc2c(Cl)cccc12	0	0.3	-0.1	0.2	0.3	-0.2	0.5	3.2	0.2	-0.2	0.1	-0.4	0.7	1.7	3.2	0.6	2.5	0.2	0.1	-0.2	ΔTm [21]: 0.3 °C
O=C1C(Cl)=C(N2C(=O)CCC2=O)C(=O)c2ccccc21	-1.9	-2.5	1.6	5.6	-1.3	-1.3	0.7	-7.6	-2.9	8.6	1	-0.3	-1.4	-4.1	-1.7	-3.7	-0.2	-2.4	-0.6	-4.4	ΔTm [21]: -0.7 °C
Cc1cc(Nc2nc(-c3ccccc3)nc3ccccc23)n[nH]1	3.7	2	1.9	5.7	2.8	3.5	3.3	6.5	12.2	0.1	0.1	0.4	2.9	0.7	5.2	1.3	6.4	6.4	7.1	0.9	ΔTm [21]: 6.6 °C
CN(C)S(=O)(=O)c1ccc2c(c1)/C(=C/c1cc3c([nH]1)CCCC3)C(=O)N2	0.2	7.6	-0.9	4.7	4.8	4.1	0.9	0.3	3.6	1.1	0.8	0.8	2.2	0.4	1.7	12.8	2.5	-0.1	6.2	1	ΔTm [21]: 1.5 °C
O=c1c(O)c(-c2ccc(O)c(O)c2)oc2cc(O)cc(O)c12 [QUERCETIN]	2.7	5.5	1.9	4.8	4.9	5.4	3.2	7.5	8.2	2.2	1.9	1.6	7.4	8.6	8.8	7.4	4.2	6.6	5.7	0.4	ΔTm [21]: -0.2 °C
CCOC(=O)c1c(C)[nH]c(/C=C2\C(=O)Nc3ccccc32)c1C	-1.3	1.4	-5	0.7	0.6	-0.1	-11.4	0	8.5	-0.4	-0.4	0.1	-0.1	0.1	0.3	2.3	-1.6	0.1	1.6	0.3	ΔTm [21]: -2.2 °C
